Data taken from patent US9200001B2, “Triazolyl PDE10 inhibitors” (Merck Sharp & Dohme Corp., priority 2011, dated 2015).

Target: human PDE10A2 (Homo sapiens (Human), UniProt Q9Y233)
Test: PDE10 fluorescence polarization (IMAP FP) inhibition assay
Format: biochemical
Details: FAM-labeled cAMP 50 nM, room temperature, read-out: PDE10a Ki
Method in brief: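 Cytoplasmic lysate of AD293 cells transiently expressing human PDE10A2, incubated 30 minutes at room temperature with 50 nM FAM-labeled cAMP in Tris pH 7.2 with MgCl2. Read by IMAP fluorescence polarization; 0% inhibition set by 1% DMSO, 100% by a reference PDE10 inhibitor.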

Sequence of human PDE10A2 (Q9Y233 267-1055): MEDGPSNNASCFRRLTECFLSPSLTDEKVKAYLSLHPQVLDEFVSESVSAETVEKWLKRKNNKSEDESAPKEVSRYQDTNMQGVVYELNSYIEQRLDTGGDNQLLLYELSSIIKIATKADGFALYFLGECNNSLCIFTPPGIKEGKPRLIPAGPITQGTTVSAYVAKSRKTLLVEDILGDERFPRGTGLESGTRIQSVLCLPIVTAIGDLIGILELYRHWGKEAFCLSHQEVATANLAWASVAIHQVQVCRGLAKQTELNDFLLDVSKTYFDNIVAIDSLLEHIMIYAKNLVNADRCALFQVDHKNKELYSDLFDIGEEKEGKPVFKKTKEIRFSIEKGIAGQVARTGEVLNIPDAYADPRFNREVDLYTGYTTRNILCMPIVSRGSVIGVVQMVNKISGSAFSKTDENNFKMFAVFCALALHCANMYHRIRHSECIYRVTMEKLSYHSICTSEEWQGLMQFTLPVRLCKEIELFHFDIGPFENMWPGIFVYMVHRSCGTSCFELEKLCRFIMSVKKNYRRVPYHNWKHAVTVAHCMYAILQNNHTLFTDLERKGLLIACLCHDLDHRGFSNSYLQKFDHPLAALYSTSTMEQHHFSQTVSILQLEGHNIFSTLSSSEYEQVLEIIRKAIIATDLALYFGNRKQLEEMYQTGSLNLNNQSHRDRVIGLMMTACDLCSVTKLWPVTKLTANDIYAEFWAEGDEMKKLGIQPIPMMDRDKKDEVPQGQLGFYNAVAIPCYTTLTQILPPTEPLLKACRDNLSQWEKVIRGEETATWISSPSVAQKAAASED

| SMILES | Ki [nM] |
| --- | --- |
| Cc1nc(C)n(-c2cc([C@@H]3C[C@H]3c3nc4ccccc4n3C)nc(N3CC(C)(O)C3)n2)n1 [Cpd 135, 1-(4-(3,5-dimethyl-1H-1,2,4-triazol-1-yl)-6-((1R,2R)-2-(1-methyl-1H-benzo[d]imidazol-2-yl)cyclopropyl)pyrimidin-2-yl)-3-methylazetidin-3-ol] | 1.1 |
| CCOc1nc([C@@H]2C[C@H]2c2nc3ccccc3n2C)cc(-n2nc(C)nc2C)n1 [Cpd 63, 2-{(1R,2R)-2-[6-(3,5-dimethyl-1H-1,2,4-triazol-1-yl)-2-ethoxypyrimidin-4-yl]cyclopropyl}-1-methyl-1H-benzimidazole] | 0.54 |
| Cc1cc(-n2nc(C)nc2C)cc([C@@H]2C[C@H]2c2nc3ccccc3n2C)n1 (relative stereo) [Cpd 108, trans-2-{2-[4-(3,5-dimethyl-1H-1,2,4-triazol-1-yl)-6-methylpyridin-2-yl]cyclopropyl}-1-methyl-1H-benzimidazole] | 14.2 |
| Cc1nc([C@@H]2C[C@H]2c2nc3ccccc3n2C)cc(-n2nc(C)nc2C(C)(C)C)n1 [Cpd 100, 2-{(1R,2R)-2-[6-(5-tert-butyl-3-methyl-1H-1,2,4-triazol-1-yl)-2-methylpyrimidin-4-yl]cyclopropyl}-1-methyl-1H-benzimidazole] | 13.8 |
| Cc1nc([C@H]2C[C@@H]2c2nc3ccccc3n2C)cc(-n2nc(C)nc2C2CC2)n1 (stereo in doubt) [Cpd 85, 2-{2-[6-(5-cyclopropyl-3-methyl-1H-1,2,4-triazol-1-yl)-2-methylpyrimidin-4-yl]cyclopropyl}-1-methyl-1H-benzimidazole] | 2.9 |
| Cc1nc(C2CC2c2nc3ccccc3[nH]2)cc(-n2nc(C)nc2C)n1 (stereo not drawn) [Cpd 41, 2-(2-(6-(3,5-dimethyl-1H-1,2,4-triazol-1-yl)-2-methylpyrimidin-4-yl)cyclopropyl)-1H-benzo[d]imidazole] | 6.8 |
| Cc1nc([C@H]2C[C@@H]2c2nc3ccccc3n2C)cc(-n2nc(C)nc2C2CCN(C(=O)OC(C)(C)C)CC2)n1 (stereo in doubt) [Cpd 84, tert-butyl 4-(3-methyl-1-{2-methyl-6-[2-(1-methyl-1H-benzimidazol-2-yl)cyclopropyl]pyrimidin-4-yl}-1H-1,2,4-triazol-5-yl)piperidine-1-carboxylate] | > 75 |
| COCc1nc(C)nn1-c1cc([C@H]2C[C@@H]2c2nc3ccccc3n2C)nc(C)n1 (stereo in doubt) [Cpd 86, 2-[2-{6-[5-(methoxymethyl)-3-methyl-1H-1,2,4-triazol-1-yl]-2-methylpyrimidin-4-yl}cyclopropyl]-1-methyl-1H-benzimidazole] | 1.4 |
| Cc1nc(C)n(-c2cc([C@H]3C[C@@H]3c3nc4ccccc4n3C)nc(NC(C)(C)C)n2)n1 (relative stereo) [Cpd 118, trans-N-tert-butyl-4-(3,5-dimethyl-1H-1,2,4-triazol-1-yl)-6-[2-(1-methyl-1H-benzimidazol-2-yl)cyclopropyl]pyrimidin-2-amine] | 1.7 |
| Cc1nc(C)n(-c2cc([C@H]3C[C@@H]3c3nc4ccccc4n3C)cnn2)n1 (relative stereo) [Cpd 128, trans-2-{2-[6-(3,5-dimethyl-1H-1,2,4-triazol-1-yl)pyridazin-4-yl]cyclopropyl}-1-methyl-1H-benzimidazole] | 38 |
| COc1ccc(C2CC2c2cc(-n3nc(C)nc3Cc3ccc(OC)c(OC)c3)nc(C)n2)nc1 (stereo not drawn) [Cpd 43, 4-(5-(3,4-dimethoxybenzyl)-3-methyl-1H-1,2,4-triazol-1-yl)-6-(2-(5-methoxypyridin-2-yl)cyclopropyl)-2-methylpyrimidine] | 0.39 |
| Cc1nc([C@@H]2C[C@H]2c2nc3ccccc3n2C)cc(-n2nc(C)nc2[C@@H]2CCCO2)n1 [Cpd 101, 1-methyl-2-[(1R,2R)-2-(2-methyl-6-{3-methyl-5-[(2S)-tetrahydrofuran-2-yl]-1H-1,2,4-triazol-1-yl}pyrimidin-4-yl)cyclopropyl]-1H-benzimidazole] | 5.8 |
